These results are taken from ChEMBL document CHEMBL5029173, “Differential BET Bromodomain Inhibition by Dihydropteridinone and Pyrimidodiazepinone Kinase Inhibitors” (J Med Chem, 2021).

As a reminder, the IC50 is the concentration that inhibits the measured activity by half. The low end stands for higher potency, the high end for lower potency. The Kd is the free concentration of one partner at which half of the binding sites on the other are occupied at equilibrium, for simple one-to-one binding. As a reminder, the ΔTm is the shift of the melting midpoint relative to a reference.

For experiment [1], the system named is MM1.S. The experiment is described as follows: Inhibition of cell growth in human MM1.S cells incubated for 72 hrs by CellTiter-blue reagent based assay. The format is functional. In general terms: Resazurin is reduced to fluorescent resorufin, in cell work by metabolically active cells.
The target of experiment [2] is Serine/threonine-protein kinase PLK1 (Homo sapiens) (UniProt P53350). The following applies: MM1.S, dose 30-100 nM, time 6.0 hrs.
Chain of Serine/threonine-protein kinase PLK1 (Homo sapiens) (P53350 whole entry): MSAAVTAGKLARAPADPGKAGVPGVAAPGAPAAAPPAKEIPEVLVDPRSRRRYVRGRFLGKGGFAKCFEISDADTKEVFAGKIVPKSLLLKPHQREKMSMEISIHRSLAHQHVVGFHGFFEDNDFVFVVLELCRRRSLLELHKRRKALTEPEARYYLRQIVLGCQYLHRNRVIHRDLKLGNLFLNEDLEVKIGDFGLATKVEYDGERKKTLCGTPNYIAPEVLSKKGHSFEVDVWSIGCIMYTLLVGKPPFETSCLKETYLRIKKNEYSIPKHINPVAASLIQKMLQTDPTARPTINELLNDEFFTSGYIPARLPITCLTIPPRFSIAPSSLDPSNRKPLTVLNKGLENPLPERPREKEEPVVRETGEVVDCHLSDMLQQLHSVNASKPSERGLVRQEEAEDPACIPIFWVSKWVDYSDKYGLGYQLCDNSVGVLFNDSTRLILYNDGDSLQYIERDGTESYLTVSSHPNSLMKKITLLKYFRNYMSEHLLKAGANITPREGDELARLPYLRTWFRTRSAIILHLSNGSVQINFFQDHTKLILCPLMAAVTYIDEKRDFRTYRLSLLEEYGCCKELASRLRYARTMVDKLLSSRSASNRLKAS
Experiment [3] addresses T1, Bromodomain-containing protein 4 (Homo sapiens, UniProt O60885). The experiment is described as follows: Binding affinity to recombinant human N-terminal hexaHis-tagged BRD4 expressed in Escherichia coli BL21 (DE3) cells by qPCR assay.
In experiment [4] the target is T2, Bromodomain testis-specific protein (Homo sapiens, UniProt Q58F21).
Description: Binding affinity to recombinant human N-terminal hexaHis-tagged BRDT expressed in Escherichia coli BL21 (DE3) cells assessed as change in melting temperature by DSF assay
Experiment [5] addresses T2, Bromodomain testis-specific protein. The experiment is described as follows: Binding affinity to recombinant human N-terminal hexaHis-tagged BRDT expressed in Escherichia coli BL21 (DE3) cells by qPCR assay. (In qPCR the cycle at which signal appears reflects the starting amount.)
The test system of experiment [6] is HEK-293T. Briefly: Inhibition of cell growth in HEK293T cells incubated for 72 hrs by CellTiter-blue reagent based assay. In kind it is functional. Particulars: Homo sapiens.
Experiment [7] deals with T1, Bromodomain-containing protein 4. Briefly: Binding affinity to recombinant human N-terminal hexaHis-tagged BRD4 expressed in Escherichia coli BL21 (DE3) cells by ITC analysis. A general note: ITC needs no label: the signal is the heat of the interaction.
Experiment [8] addresses T2, Bromodomain testis-specific protein. The experiment is described as follows: Binding affinity to recombinant human N-terminal hexaHis-tagged BRDT expressed in Escherichia coli BL21 (DE3) cells by MST assay.
Experiment [9] addresses T1, Bromodomain-containing protein 4.
Description: Binding affinity to recombinant human N-terminal hexaHis-tagged BRD4 expressed in Escherichia coli BL21 (DE3) cells assessed as change in melting temperature by DSF assay
The target in experiment [10] is T2, Bromodomain testis-specific protein. The experiment is described as follows: Binding affinity to recombinant human N-terminal hexaHis-tagged BRDT expressed in Escherichia coli BL21 (DE3) cells by ITC analysis.
For experiment [11], the target named is T1, Bromodomain-containing protein 4. The experiment is described as follows: Binding affinity to recombinant human N-terminal hexaHis-tagged BRD4 expressed in Escherichia coli BL21 (DE3) cells by MST assay.

Calls of active or inactive are those of the source. The rule behind the calls is not given here.

Turning to `Cc1sc2c(c1C)C(c1ccc(Cl)cc1)=N[C@@H](CC(=O)OC(C)(C)C)c1nnc(C)n1-2`, the IC50 in [1] was 33 nM. The inhibition result in experiment [2] was “inactive”.
With `CCOc1cc(C(=O)N2CCC(N3CCN(C)CC3)CC2)ccc1Nc1ncc2c(n1)N(C1CCCC1)c1ccccc1C(=O)N2C`, the IC50 in [1] is 280 nM; in [6], > 10000 nM. Moreover, the Kd in experiment [3] is 69 nM; in experiment [5] it was 500 nM; in experiment [7], 213 nM; in experiment [8], 1600 nM; in experiment [10], 2100 nM; in experiment [11], 205 nM. Moreover, the shift in melting temperature (ΔTm) in experiment [4] amounted to 2.3 °C; in experiment [9] it was 7.3 °C.
On to `C[C@@H](Oc1cc(-n2cnc3ccc(CN4CCN(C)CC4)cc32)sc1C(N)=O)c1ccccc1C(F)(F)F`, for which the inhibition entry in [2] is “Active”.
For the molecule `CC[C@@H]1C(=O)N(C)c2cnc(Nc3ccc(C(=O)N[C@H]4CC[C@H](N5CCN(CC6CC6)CC5)CC4)cc3OC)nc2N1C(C)C` [VOLASERTIB], the IC50 was 4.5 nM in experiment [1] and 1.1 nM in experiment [6]. For the same molecule, the Kd in experiment [3] came out at 77 nM; in [5], 113 nM; in experiment [7], 317 nM; in experiment [8], 1030 nM; in [10], 1700 nM; in experiment [11] it was 169 nM. In addition, in [4], the ΔTm is 5 °C. Further, the inhibition entry in experiment [2] is “Active”.
Consider `COc1cc(C(=O)N2CCC(N3CCN(C)CC3)CC2)ccc1Nc1ncc2c(n1)N(C)c1ccccc1C(=O)N2C`, for which the half-inhibitory concentration (IC50) in experiment [1] was determined as 530 nM; in experiment [6], 2800 nM. Moreover, in experiment [4], the ΔTm came to 3.8 °C. In [2], the inhibition entry was “inactive”.
Regarding `CCOc1cc(N2CCC(O)CC2)ccc1Nc1ncc2c(n1)N(C)c1ccccc1C(=O)N2C`, the Kd in experiment [3] was determined as 205 nM; in experiment [5] it was 675 nM; in experiment [7] it was 735 nM; in [8] it was 3500 nM; in [10], 4200 nM; in experiment [11] it was 800 nM. Also, the ΔTm in experiment [4] was found to be 2.9 °C. For the same molecule, the IC50 in experiment [6] is > 10000 nM.
As for `Cc1cnc(Nc2ccc(C(=O)NC3CCN(C)CC3)c(F)c2)nc1Nc1ccc(Cl)c(NS(=O)(=O)C(C)(C)C)c1`, the IC50 was 26 nM in experiment [1] and 140 nM in experiment [6]. The Kd in [3] worked out at 12 nM; in [7], 54 nM; in experiment [10], 59 nM. Further, the ΔTm worked out at 11.9 °C in experiment [4] and 13.5 °C in experiment [9].
